Measured values reported in US8614333B2, “Acenaphtho heterocyclic compound and application thereof” (Dalian University of Technology, priority 2010, dated 2013).

Biological target: GST-Bcl-2 protein (Homo sapiens, UniProt P10415)
Assay: Fluorescence polarization assay, competition with FAM-Bid peptide for Bcl-2
Conditions: GST-Bcl-2 40 nM, FAM-Bid 5 nM, 4 hours of incubation, read-out: Bcl-2 binding constants
Description: (§1) A Bid BH3 peptide (amino acids: 79-99: […]) having 21 amino acids was synthesized and marked with 6-carboxyfluorescein N-succinimidyl ester (FAM) as fluorescent tag (FAM-Bid) at the N-terminal. The reaction system used in the competitive binding experiment was GST-Bcl-2 protein (40 nM) or Mcl-1 protein, which was dissolved in the reaction buffer (100 mM K3PO4, pH 7.5; 100 μg/ml bovine γ albumin; 0.02% sodium azide) together with FAM-Bid polypeptide (5 nM). In a 96-well plate, 100 µL of the reaction system was added into each well. Then 1 μL different concentration of compound 13 mother solution to be detected dissolved in DMSO was added there into until the final concentration met the experimental design requirements. Meanwhile, two control groups were established, one with the reaction system only containing Bcl-2 or Mcl-1 and FAM-Bid (equivalent to 0% inhibition rate), the other with the reaction system only containing FAM-Bid peptide. After 4 hours of incubation, the 96-well plate was detected by enzyme-labelled meter. The fluorescent polarization value (mP) was tested at […]. Ki value was deduced according to calculation formula.
(§2) The BH3 analogous degrees of other 12 compounds were detected by using the experimental method as described above.

Chain of GST-Bcl-2 protein (P10415 whole entry): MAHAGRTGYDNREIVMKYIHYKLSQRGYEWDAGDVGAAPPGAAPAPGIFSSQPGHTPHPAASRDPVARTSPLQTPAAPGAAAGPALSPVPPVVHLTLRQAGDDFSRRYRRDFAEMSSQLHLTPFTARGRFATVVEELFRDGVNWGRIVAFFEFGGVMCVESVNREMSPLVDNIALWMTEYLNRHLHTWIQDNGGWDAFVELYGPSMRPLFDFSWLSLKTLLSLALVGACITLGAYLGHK

| SMILES | Ki [nM] |
| --- | --- |
| CC(C)c1ccc(Sc2ccc3cccc4c3c2C2=NC(=O)C(C#N)=C24)cc1 [Compound 22, 6-(4-Isopropyl-phenylsulfanyl)-8-oxo-8H-acenaphtho[1,2-b]pyrrole-9-carbonitrile] | 9 |
| N#CC1=C2C(=NC1=O)c1ccc(C(=O)c3ccc(CN)cc3)c3cccc2c13 [Compound 25, 4-(4-Aminomethyl-benzoyl)-8-oxo-8H-acenaphtho[1,2-b]pyrrole-9-carbonitrile] | 115 |
| CCCCCCOc1ccc2c3c(cccc13)C1=NC(=O)C(C(=O)O)=C12 [Compound 26, 3-Hexyloxy-8-oxo-8H-acenaphtho[1,2-b]pyrrole-9-carboxylic acid] | 105 |
| CC(C)c1ccc(Oc2ccc3c4c(cccc24)C2=NC(=O)C(C#N)=C23)cc1 [Compound 17, 3-(4-Isopropyl-phenoxy)-8-oxo-8H-acenaphtho[1,2-b]pyrrole-9-carbonitrile] | 20 |

Biological target: Mcl-1 protein (Homo sapiens, UniProt Q07820)
Assay: Fluorescence polarization assay, competition with FAM-Bid peptide for Mcl-1
Conditions: FAM-Bid 5 nM, 4 hours of incubation, read-out: Mcl-1 binding constants
Description: as §1, §2

Chain of Mcl-1 protein (Q07820 whole entry, species assumed): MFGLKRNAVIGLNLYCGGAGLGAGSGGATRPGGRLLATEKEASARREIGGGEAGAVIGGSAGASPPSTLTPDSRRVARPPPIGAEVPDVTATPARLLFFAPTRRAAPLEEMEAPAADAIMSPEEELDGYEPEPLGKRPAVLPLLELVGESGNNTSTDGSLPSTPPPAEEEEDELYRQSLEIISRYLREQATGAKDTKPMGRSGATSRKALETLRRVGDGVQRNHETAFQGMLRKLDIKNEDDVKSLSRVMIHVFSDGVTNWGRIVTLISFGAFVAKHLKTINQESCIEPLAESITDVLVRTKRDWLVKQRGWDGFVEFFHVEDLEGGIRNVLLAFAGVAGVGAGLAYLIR

| SMILES | Ki [nM] |
| --- | --- |
| CC(C)c1ccc(Sc2ccc3cccc4c3c2C2=NC(=O)C(C#N)=C24)cc1 [Compound 22, 6-(4-Isopropyl-phenylsulfanyl)-8-oxo-8H-acenaphtho[1,2-b]pyrrole-9-carbonitrile] | 85 |
| N#CC1=C2C(=NC1=O)c1ccc(C(=O)c3ccc(CN)cc3)c3cccc2c13 [Compound 25, 4-(4-Aminomethyl-benzoyl)-8-oxo-8H-acenaphtho[1,2-b]pyrrole-9-carbonitrile] | 135 |
| CCCCCCOc1ccc2c3c(cccc13)C1=NC(=O)C(C(=O)O)=C12 [Compound 26, 3-Hexyloxy-8-oxo-8H-acenaphtho[1,2-b]pyrrole-9-carboxylic acid] | 85 |
| CC(C)c1ccc(Oc2ccc3c4c(cccc24)C2=NC(=O)C(C#N)=C23)cc1 [Compound 17, 3-(4-Isopropyl-phenoxy)-8-oxo-8H-acenaphtho[1,2-b]pyrrole-9-carbonitrile] | 85 |

Biological target: T1, interaction between Bcl-2 and Bax (Homo sapiens, UniProt P10415)
T1 construct: expressed in transfected cells; host or cells: Hela cells
Assay: Intracellular FRET, Bcl-2-CFP/Bax-YFP in Hela cells
Type: cell-based
Conditions: not given
Procedure, shortened: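 Hela cells transfected with Bcl-2-CFP and/or Bax-YFP plasmids, then treated with compound in DMSO at 2, 5, 10 and 15 μM for 24 h, or at 40 μM for 3, 6 and 24 h. FRET taken as the 527/475 nm emission ratio at 433 nm excitation, with singly transfected controls set to 1.0. Viability checked by MTT.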

T1 sequence (P10415 whole entry): as the sequence (P10415 whole entry) above

| SMILES | Doses (concentration at which the compound interfered with the interaction between Bcl-2 and Bax) [µM] |
| --- | --- |
| CC(C)c1ccc(Sc2ccc3cccc4c3c2C2=NC(=O)C(C#N)=C24)cc1 [Compound 22, 6-(4-Isopropyl-phenylsulfanyl)-8-oxo-8H-acenaphtho[1,2-b]pyrrole-9-carbonitrile] | 0.5 |
| N#CC1=C2C(=NC1=O)c1ccc(C(=O)c3ccc(CN)cc3)c3cccc2c13 [Compound 25, 4-(4-Aminomethyl-benzoyl)-8-oxo-8H-acenaphtho[1,2-b]pyrrole-9-carbonitrile] | 0.6 |
| CCCCCCOc1ccc2c3c(cccc13)C1=NC(=O)C(C(=O)O)=C12 [Compound 26, 3-Hexyloxy-8-oxo-8H-acenaphtho[1,2-b]pyrrole-9-carboxylic acid] | 0.5 |
| CC(C)c1ccc(Oc2ccc3c4c(cccc24)C2=NC(=O)C(C#N)=C23)cc1 [Compound 17, 3-(4-Isopropyl-phenoxy)-8-oxo-8H-acenaphtho[1,2-b]pyrrole-9-carbonitrile] | 0.1 |

Same assay, conditions: at the concentration given

| SMILES | Time (time period after which the interaction between Bcl-2 and Bax was interfered) [h] |
| --- | --- |
| CC(C)c1ccc(Sc2ccc3cccc4c3c2C2=NC(=O)C(C#N)=C24)cc1 [Compound 22, 6-(4-Isopropyl-phenylsulfanyl)-8-oxo-8H-acenaphtho[1,2-b]pyrrole-9-carbonitrile] | 2 |
| N#CC1=C2C(=NC1=O)c1ccc(C(=O)c3ccc(CN)cc3)c3cccc2c13 [Compound 25, 4-(4-Aminomethyl-benzoyl)-8-oxo-8H-acenaphtho[1,2-b]pyrrole-9-carbonitrile] | 4 |
| CCCCCCOc1ccc2c3c(cccc13)C1=NC(=O)C(C(=O)O)=C12 [Compound 26, 3-Hexyloxy-8-oxo-8H-acenaphtho[1,2-b]pyrrole-9-carboxylic acid] | 5 |
| CC(C)c1ccc(Oc2ccc3c4c(cccc24)C2=NC(=O)C(C#N)=C23)cc1 [Compound 17, 3-(4-Isopropyl-phenoxy)-8-oxo-8H-acenaphtho[1,2-b]pyrrole-9-carbonitrile] | 2 |

System: BAX shift towards the chondriosome
Assay: Co-localization between Bax protein and chondriosome, Bax-YFP in MCF-7 cells
Type: cell-based
Conditions: Bax-YFP/Mito Tracker Red
Procedure, shortened: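 MCF-7 cells transfected with Bax-YFP plasmid; 24 h later treated with 10 μM compound for 6 h, then stained 10 min with 50 nM MitoTracker Red CMXRos. Dual-channel laser confocal imaging; Bax mitochondrial localization read as green/red overlap (orange).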

| SMILES | Doses (concentration at which the compound drove the BAX to shift towards the chondriosome) [µM] |
| --- | --- |
| CC(C)c1ccc(Sc2ccc3cccc4c3c2C2=NC(=O)C(C#N)=C24)cc1 [Compound 22, 6-(4-Isopropyl-phenylsulfanyl)-8-oxo-8H-acenaphtho[1,2-b]pyrrole-9-carbonitrile] | 5.0 |
| N#CC1=C2C(=NC1=O)c1ccc(C(=O)c3ccc(CN)cc3)c3cccc2c13 [Compound 25, 4-(4-Aminomethyl-benzoyl)-8-oxo-8H-acenaphtho[1,2-b]pyrrole-9-carbonitrile] | 6.0 |
| CCCCCCOc1ccc2c3c(cccc13)C1=NC(=O)C(C(=O)O)=C12 [Compound 26, 3-Hexyloxy-8-oxo-8H-acenaphtho[1,2-b]pyrrole-9-carboxylic acid] | 5.0 |
| CC(C)c1ccc(Oc2ccc3c4c(cccc24)C2=NC(=O)C(C#N)=C23)cc1 [Compound 17, 3-(4-Isopropyl-phenoxy)-8-oxo-8H-acenaphtho[1,2-b]pyrrole-9-carbonitrile] | 1.0 |

Same assay, conditions: at the concentration given

| SMILES | Time (time period after which BAX shifted towards the chondriosome) [h] |
| --- | --- |
| CC(C)c1ccc(Sc2ccc3cccc4c3c2C2=NC(=O)C(C#N)=C24)cc1 [Compound 22, 6-(4-Isopropyl-phenylsulfanyl)-8-oxo-8H-acenaphtho[1,2-b]pyrrole-9-carbonitrile] | 3 |
| N#CC1=C2C(=NC1=O)c1ccc(C(=O)c3ccc(CN)cc3)c3cccc2c13 [Compound 25, 4-(4-Aminomethyl-benzoyl)-8-oxo-8H-acenaphtho[1,2-b]pyrrole-9-carbonitrile] | 4 |
| CCCCCCOc1ccc2c3c(cccc13)C1=NC(=O)C(C(=O)O)=C12 [Compound 26, 3-Hexyloxy-8-oxo-8H-acenaphtho[1,2-b]pyrrole-9-carboxylic acid] | 5 |
| CC(C)c1ccc(Oc2ccc3c4c(cccc24)C2=NC(=O)C(C#N)=C23)cc1 [Compound 17, 3-(4-Isopropyl-phenoxy)-8-oxo-8H-acenaphtho[1,2-b]pyrrole-9-carbonitrile] | 1 |

System: MCF-7 cells
Assay: Cytotoxicity by MTT, cells without plasmid transfection
Type: cell-based
Conditions: Homo sapiens, MCF7; MCF-7, MTT, 48 hours; read-out: IC50 value in untransfected cells
Procedure, shortened: (§3)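 MCF-7 cells transfected with 3 μg BAX/BAK interfering plasmid by calcium phosphate, knockdown checked by Western; untransfected cells run in parallel. Cells treated with a compound concentration gradient for 48 hours; viability by MTT, IC50 derived.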

| SMILES | IC50 [µM] |
| --- | --- |
| CC(C)c1ccc(Sc2ccc3cccc4c3c2C2=NC(=O)C(C#N)=C24)cc1 [Compound 22, 6-(4-Isopropyl-phenylsulfanyl)-8-oxo-8H-acenaphtho[1,2-b]pyrrole-9-carbonitrile] | 1.2 |
| N#CC1=C2C(=NC1=O)c1ccc(C(=O)c3ccc(CN)cc3)c3cccc2c13 [Compound 25, 4-(4-Aminomethyl-benzoyl)-8-oxo-8H-acenaphtho[1,2-b]pyrrole-9-carbonitrile] | 6.5 |
| CCCCCCOc1ccc2c3c(cccc13)C1=NC(=O)C(C(=O)O)=C12 [Compound 26, 3-Hexyloxy-8-oxo-8H-acenaphtho[1,2-b]pyrrole-9-carboxylic acid] | 6.2 |
| CC(C)c1ccc(Oc2ccc3c4c(cccc24)C2=NC(=O)C(C#N)=C23)cc1 [Compound 17, 3-(4-Isopropyl-phenoxy)-8-oxo-8H-acenaphtho[1,2-b]pyrrole-9-carbonitrile] | 2 |

System: MCF-7 cells transfected with BAX/BAK interfering plasmid
Assay: Cytotoxicity by MTT, cells transfected with BAX/BAK interfering plasmid
Type: cell-based
Conditions: Homo sapiens, MCF7; MCF-7 with BAX/BAK interfering plasmid, MTT, 48 hours
Procedure, shortened: as §3

| SMILES | IC50 [µM] |
| --- | --- |
| CC(C)c1ccc(Sc2ccc3cccc4c3c2C2=NC(=O)C(C#N)=C24)cc1 [Compound 22, 6-(4-Isopropyl-phenylsulfanyl)-8-oxo-8H-acenaphtho[1,2-b]pyrrole-9-carbonitrile] | > 50 |
| N#CC1=C2C(=NC1=O)c1ccc(C(=O)c3ccc(CN)cc3)c3cccc2c13 [Compound 25, 4-(4-Aminomethyl-benzoyl)-8-oxo-8H-acenaphtho[1,2-b]pyrrole-9-carbonitrile] | > 50 |
| CCCCCCOc1ccc2c3c(cccc13)C1=NC(=O)C(C(=O)O)=C12 [Compound 26, 3-Hexyloxy-8-oxo-8H-acenaphtho[1,2-b]pyrrole-9-carboxylic acid] | > 50 |
| CC(C)c1ccc(Oc2ccc3c4c(cccc24)C2=NC(=O)C(C#N)=C23)cc1 [Compound 17, 3-(4-Isopropyl-phenoxy)-8-oxo-8H-acenaphtho[1,2-b]pyrrole-9-carbonitrile] | > 50 |

System: Bcl-2
Assay: Western blotting, semiquantitative analysis of Bcl-2 protein bands
Type: cell-based
Conditions: 6 h; control = 1; tumor cells
Description: (§4) The interest protein was detected by the corresponding antibody. The expression of the interest protein in the cells was detected by horseradish peroxidase-labeled secondary antibodies in combination with ECL coloration method. […] The concentration of the protein bands in the Western images were carried out semiquantitative analysis and normalization treatment with KODAK Gel Logic 1500 imaging system software.

| SMILES | concentration of the protein bands (semiquantitative, normalized), Bcl-2 |
| --- | --- |
| CC(C)c1ccc(Sc2ccc3cccc4c3c2C2=NC(=O)C(C#N)=C24)cc1 [Compound 22, 6-(4-Isopropyl-phenylsulfanyl)-8-oxo-8H-acenaphtho[1,2-b]pyrrole-9-carbonitrile] | 0.99 |
| CC(C)c1ccc(Oc2ccc3c4c(cccc24)C2=NC(=O)C(C#N)=C23)cc1 [Compound 17, 3-(4-Isopropyl-phenoxy)-8-oxo-8H-acenaphtho[1,2-b]pyrrole-9-carbonitrile] | 0.99 |

Same assay, conditions: 12 h; control = 1; tumor cells

| SMILES | concentration of the protein bands (semiquantitative, normalized), Bcl-2 |
| --- | --- |
| CC(C)c1ccc(Sc2ccc3cccc4c3c2C2=NC(=O)C(C#N)=C24)cc1 [Compound 22, 6-(4-Isopropyl-phenylsulfanyl)-8-oxo-8H-acenaphtho[1,2-b]pyrrole-9-carbonitrile] | 0.99 |
| CC(C)c1ccc(Oc2ccc3c4c(cccc24)C2=NC(=O)C(C#N)=C23)cc1 [Compound 17, 3-(4-Isopropyl-phenoxy)-8-oxo-8H-acenaphtho[1,2-b]pyrrole-9-carbonitrile] | 0.99 |

Same assay, conditions: 18 h; control = 1; tumor cells

| SMILES | concentration of the protein bands (semiquantitative, normalized), Bcl-2 |
| --- | --- |
| CC(C)c1ccc(Sc2ccc3cccc4c3c2C2=NC(=O)C(C#N)=C24)cc1 [Compound 22, 6-(4-Isopropyl-phenylsulfanyl)-8-oxo-8H-acenaphtho[1,2-b]pyrrole-9-carbonitrile] | 0.60 |
| CC(C)c1ccc(Oc2ccc3c4c(cccc24)C2=NC(=O)C(C#N)=C23)cc1 [Compound 17, 3-(4-Isopropyl-phenoxy)-8-oxo-8H-acenaphtho[1,2-b]pyrrole-9-carbonitrile] | 0.58 |

Same assay, conditions: 24 h; control = 1; tumor cells

| SMILES | concentration of the protein bands (semiquantitative, normalized), Bcl-2 |
| --- | --- |
| CC(C)c1ccc(Sc2ccc3cccc4c3c2C2=NC(=O)C(C#N)=C24)cc1 [Compound 22, 6-(4-Isopropyl-phenylsulfanyl)-8-oxo-8H-acenaphtho[1,2-b]pyrrole-9-carbonitrile] | 0.37 |
| CC(C)c1ccc(Oc2ccc3c4c(cccc24)C2=NC(=O)C(C#N)=C23)cc1 [Compound 17, 3-(4-Isopropyl-phenoxy)-8-oxo-8H-acenaphtho[1,2-b]pyrrole-9-carbonitrile] | 0.11 |

System: Mcl-1
Assay: Western blotting, semiquantitative analysis of Mcl-1 protein bands
Type: cell-based
Conditions: 2 h; control = 1; tumor cells
Description: as §4

| SMILES | concentration of the protein bands (semiquantitative, normalized), Mcl-1 |
| --- | --- |
| CC(C)c1ccc(Sc2ccc3cccc4c3c2C2=NC(=O)C(C#N)=C24)cc1 [Compound 22, 6-(4-Isopropyl-phenylsulfanyl)-8-oxo-8H-acenaphtho[1,2-b]pyrrole-9-carbonitrile] | 0.68 |
| CC(C)c1ccc(Oc2ccc3c4c(cccc24)C2=NC(=O)C(C#N)=C23)cc1 [Compound 17, 3-(4-Isopropyl-phenoxy)-8-oxo-8H-acenaphtho[1,2-b]pyrrole-9-carbonitrile] | 0.65 |

Same assay, conditions: 6 h; control = 1; tumor cells

| SMILES | concentration of the protein bands (semiquantitative, normalized), Mcl-1 |
| --- | --- |
| CC(C)c1ccc(Sc2ccc3cccc4c3c2C2=NC(=O)C(C#N)=C24)cc1 [Compound 22, 6-(4-Isopropyl-phenylsulfanyl)-8-oxo-8H-acenaphtho[1,2-b]pyrrole-9-carbonitrile] | 0.49 |
| CC(C)c1ccc(Oc2ccc3c4c(cccc24)C2=NC(=O)C(C#N)=C23)cc1 [Compound 17, 3-(4-Isopropyl-phenoxy)-8-oxo-8H-acenaphtho[1,2-b]pyrrole-9-carbonitrile] | 0.37 |
